Assay results from ChEMBL document CHEMBL5390265, “Design, Synthesis, and Pharmacological Evaluation of Multisubstituted Pyrido[4,3-d]pyrimidine Analogues Bearing Deuterated Methylene Linkers as Potent KRASG12D Inhibitors” (J Med Chem, 2023).

Tests used:
[1] = Half life in Sprague-Dawley rat at 3 mg/kg,po measured upto 24 hrs by LC-MS/MS analysis; assay type: ADME, organism-based; conditions: in vivo
[2] = Toxicity in mouse xenografted with human ASPC1 cells assessed as serum blood urea nitrogen level at 10 mg/kg,ip administrated twice daily for 20 consecutive days (reference value: 16.3 +/- 1.6 mmol/L); assay type: organism-based; conditions: in vivo
AGS [3] = test: Induction of apoptosis in human AGS cells harboring […] assessed as early apoptotic cells at 25 uM incubated for 24 hrs by annexin V and propidium iodide staining based flow cytometry analysis (reference value: 4.05%); assay type: functional
ASPC1 [4] = test: Induction of apoptosis in human ASPC1 cells harboring […] assessed as late apoptotic cells at 50 uM incubated for 24 hrs by annexin V and propidium iodide staining based flow cytometry analysis (reference value: 6.96%); assay type: functional
[5] = Toxicity in mouse xenografted with human ASPC1 cells assessed as change in spleen morphology at 10 mg/kg,ip administrated twice daily for 20 consecutive days by Hematoxylin-eosin staining based microscopic analysis; assay type: organism-based; conditions: in vivo
ASPC1 [6] = test: Antitumor activity against human ASPC1 cells xenografted in mouse assessed as inhibition of tumor growth at 10 mg/kg,ip administrated twice daily for 20 consecutive days relative to control; assay type: functional; conditions: read-out: TGI
ASPC1 [7] = test: Induction of apoptosis in human ASPC1 cells harboring […] assessed as late apoptotic cells at 25 uM incubated for 24 hrs by annexin V and propidium iodide staining based flow cytometry analysis (reference value: 6.96%); assay type: functional
[8] = Metabolic stability in monkey liver microsomes assessed as intrinsic clearance at 150 uM measured after 60 mins in presence of NADPH by LC-MS/MS analysis; assay type: ADME, Macaca mulatta, Microsome; conditions: rhesus monkey, read-out: CLH
[9] = Toxicity in mouse xenografted with human ASPC1 cells assessed as change in heart morphology at 20 mg/kg,ip administrated twice daily for 20 consecutive days by Hematoxylin-eosin staining based microscopic analysis; assay type: organism-based; conditions: in vivo
[10] = Toxicity in mouse xenografted with human ASPC1 cells assessed as change in liver morphology at 20 mg/kg,ip administrated twice daily for 20 consecutive days by Hematoxylin-eosin staining based microscopic analysis; assay type: organism-based; conditions: in vivo
[11] = Toxicity in mouse xenografted with human ASPC1 cells assessed as serum ratio of AST/ALT at 10 mg/kg,ip administrated twice daily for 20 consecutive days (reference value: 6.5 +/- 1.7); assay type: organism-based; conditions: in vivo
A549 = test: Antiproliferative activity against human A549 cells harboring […] assessed as inhibition of cell growth incubated for 5 days by crystal violet staining analysis; assay type: functional, cell-based; conditions: Homo sapiens, A549, 120 h
[12] = Half life in Sprague-Dawley rat at 1 mg/kg,iv measured upto 24 hrs by LC-MS/MS analysis; assay type: ADME, organism-based; conditions: in vivo
[13] = Clearance in Sprague-Dawley rat at 1 mg/kg,iv measured upto 24 hrs by LC-MS/MS analysis; assay type: ADME, organism-based; conditions: in vivo
[14] = Toxicity in mouse xenografted with human ASPC1 cells assessed as serum creatinine level at 10 mg/kg,ip administrated twice daily for 20 consecutive days (reference value: 28.2 +/- 2.1 umol/L); assay type: organism-based; conditions: in vivo
AGS [15] = test: Antiproliferative activity against human AGS cells harboring […] assessed as inhibition of cell growth incubated for 5 days by crystal violet staining analysis; assay type: functional, cell-based; conditions: Homo sapiens, AGS, 120 h
[16] = Metabolic stability in rat liver microsomes assessed as half life at 150 uM measured after 60 mins in presence of NADPH by LC-MS/MS analysis; assay type: ADME, Microsome
[17] = Metabolic stability in dog liver microsomes assessed as intrinsic clearance at 150 uM measured after 60 mins in presence of NADPH by LC-MS/MS analysis; assay type: ADME, Canis lupus familiaris, Microsome; conditions: read-out: CLH
[18] = Toxicity in mouse xenografted with human ASPC1 cells assessed as change in body weight at 20 mg/kg,ip administrated twice daily for 20 consecutive days; assay type: organism-based; conditions: in vivo
[19] = Toxicity in mouse xenografted with human ASPC1 cells assessed as change in body weight at 10 mg/kg,ip administrated twice daily for 20 consecutive days; assay type: organism-based; conditions: in vivo
[20] = Toxicity in mouse xenografted with human ASPC1 cells assessed as change in kidney morphology at 20 mg/kg,ip administrated twice daily for 20 consecutive days by Hematoxylin-eosin staining based microscopic analysis; assay type: organism-based; conditions: in vivo
ASPC1 [21] = test: Induction of apoptosis in human ASPC1 cells harboring […] assessed as early apoptotic cells at 50 uM incubated for 24 hrs by annexin V and propidium iodide staining based flow cytometry analysis (reference value: 5.22%); assay type: functional
[22] = Toxicity in mouse xenografted with human ASPC1 cells assessed as serum blood urea nitrogen level at 20 mg/kg,ip administrated twice daily for 20 consecutive days (reference value: 16.3 +/- 1.6 mmol/L); assay type: organism-based; conditions: in vivo
[23] = Toxicity in mouse xenografted with human ASPC1 cells assessed as serum creatinine level at 20 mg/kg,ip administrated twice daily for 20 consecutive days (reference value: 28.2 +/- 2.1 umol/L); assay type: organism-based; conditions: in vivo
[24] = Toxicity in mouse xenografted with human ASPC1 cells assessed as change in lung morphology at 10 mg/kg,ip administrated twice daily for 20 consecutive days by Hematoxylin-eosin staining based microscopic analysis; assay type: organism-based; conditions: in vivo
[25] = Metabolic stability in monkey liver microsomes assessed as half life at 150 uM measured after 60 mins in presence of NADPH by LC-MS/MS analysis; assay type: ADME, Macaca mulatta, Microsome; conditions: rhesus monkey
[26] = Toxicity in mouse xenografted with human ASPC1 cells assessed as change in heart morphology at 10 mg/kg,ip administrated twice daily for 20 consecutive days by Hematoxylin-eosin staining based microscopic analysis; assay type: organism-based; conditions: in vivo
[27] = Toxicity in mouse xenografted with human ASPC1 cells assessed as change in liver morphology at 10 mg/kg,ip administrated twice daily for 20 consecutive days by Hematoxylin-eosin staining based microscopic analysis; assay type: organism-based; conditions: in vivo
ASPC1 [28] = test: Antiproliferative activity against human ASPC1 cells harboring […] assessed as inhibition of cell growth incubated for 5 days by crystal violet staining analysis; assay type: functional, cell-based; conditions: Homo sapiens, ASPC1, 120 h
GTPase KRas = GTPase KRas (Homo sapiens, UniProt P01116); test: Inhibition of recombinant human GTP-bound KRAS wild type (1 to 169 residues) incubated for 1 hr by HTRF assay
[29] = Toxicity in mouse xenografted with human ASPC1 cells assessed as change in spleen morphology at 20 mg/kg,ip administrated twice daily for 20 consecutive days by Hematoxylin-eosin staining based microscopic analysis; assay type: organism-based; conditions: in vivo
[30] = Metabolic stability in dog liver microsomes assessed as half life at 150 uM measured after 60 mins in presence of NADPH by LC-MS/MS analysis; assay type: ADME, Canis lupus familiaris, Microsome
ASPC1 [31] = test: Induction of apoptosis in human ASPC1 cells harboring […] assessed as early apoptotic cells at 25 uM incubated for 24 hrs by annexin V and propidium iodide staining based flow cytometry analysis (reference value: 5.22%); assay type: functional
AGS [32] = test: Induction of apoptosis in human AGS cells harboring […] assessed as late apoptotic cells at 50 uM incubated for 24 hrs by annexin V and propidium iodide staining based flow cytometry analysis (reference value: 7.74%); assay type: functional
[33] = AUC in Sprague-Dawley rat at 3 mg/kg,po measured upto 24 hrs by LC-MS/MS analysis; assay type: ADME, organism-based; set-up: time < 24 hrs, dose 3 mg/kg, route po; conditions: in vivo
[34] = Toxicity in mouse xenografted with human ASPC1 cells assessed as change in lung morphology at 20 mg/kg,ip administrated twice daily for 20 consecutive days by Hematoxylin-eosin staining based microscopic analysis; assay type: organism-based; conditions: in vivo
[35] = Metabolic stability in rat liver microsomes assessed as intrinsic clearance at 150 uM measured after 60 mins in presence of NADPH by LC-MS/MS analysis; assay type: ADME, Microsome; conditions: read-out: CLH
AGS [36] = test: Induction of apoptosis in human AGS cells harboring […] assessed as early apoptotic cells at 50 uM incubated for 24 hrs by annexin V and propidium iodide staining based flow cytometry analysis (reference value: 4.05%); assay type: functional
[37] = Toxicity in mouse xenografted with human ASPC1 cells assessed as serum ratio of AST/ALT at 20 mg/kg,ip administrated twice daily for 20 consecutive days (reference value: 6.5 +/- 1.7); assay type: organism-based; conditions: in vivo
ASPC1 [38] = test: Antitumor activity against human ASPC1 cells xenografted in mouse assessed as inhibition of tumor growth at 20 mg/kg,ip administrated twice daily for 20 consecutive days relative to control; assay type: functional; conditions: read-out: TGI
[39] = AUC in Sprague-Dawley rat at 1 mg/kg,iv measured upto 24 hrs by LC-MS/MS analysis; assay type: ADME, organism-based; set-up: dose 1 mg/kg, time < 24 hrs, route iv; conditions: in vivo
[40] = Inhibition of recombinant human His6-tagged KRAS4B G12D mutant incubated for 1 hr by HTRF assay
AGS [41] = test: Induction of apoptosis in human AGS cells harboring […] assessed as late apoptotic cells at 25 uM incubated for 24 hrs by annexin V and propidium iodide staining based flow cytometry analysis (reference value: 7.74%); assay type: functional
NCI-H1299 = test: Antiproliferative activity against human NCI-H1299 cells harboring KRAS wild type assessed as inhibition of cell growth incubated for 5 days by crystal violet staining analysis; assay type: functional, cell-based; conditions: NCI-H1299, 120 h
[42] = Toxicity in mouse xenografted with human ASPC1 cells assessed as change in kidney morphology at 10 mg/kg,ip administrated twice daily for 20 consecutive days by Hematoxylin-eosin staining based microscopic analysis; assay type: organism-based; conditions: in vivo

[2H]C([2H])(Oc1nc(N2C[C@H]3CC[C@@H](C2)N3)c2cnc(-c3cc(N)cc4ccc(F)c(C#C)c34)c(F)c2n1)C12CCCN1CC(=C(F)F)C2 (stereo partly drawn)
half-life [1]: 22.9 min | Activity [2]: 19.2 mmol/L | Activity (AGS [3]): 8.84% | Activity (ASPC1 [4]): 11.8% | Activity [5]: Non-Toxic | inhibition in vivo at 10 mg/kg (ASPC1 [6]): 53.3% | Activity (ASPC1 [7]): 10.8% | microsomal CLint at 150 µM [8]: 45.4 µL/min/mg | Activity [9]: Non-Toxic | Activity [10]: Non-Toxic | Ratio [11]: 4.5 | IC50 (A549): 1190 nM | half-life [12]: 660 min | clearance [13]: 168 mL/min/kg | Activity [14]: 29.7 µmol/L | IC50 (AGS [15]): 0.9 nM | half-life at 150 µM [16]: 92.4 min | microsomal CLint at 150 µM [17]: 16.2 µL/min/mg | Activity [18]: Non-Toxic | Activity [19]: Non-Toxic | Activity [20]: Non-Toxic | Activity (ASPC1 [21]): 12.4% | Activity [22]: 16.7 mmol/L | Activity [23]: 23.5 µmol/L | Activity [24]: Non-Toxic | half-life at 150 µM [25]: 30.5 min | Activity [26]: Non-Toxic | Activity [27]: Non-Toxic | IC50 (ASPC1 [28]): 1.6 nM | IC50 (GTPase KRas): 16.7 nM | Activity [29]: Non-Toxic | half-life at 150 µM [30]: 85.6 min | Activity (ASPC1 [31]): 9.56% | Activity (AGS [32]): 13.7% | AUC at 24 h [33]: 2.89 ng·h/mL | Activity [34]: Non-Toxic | microsomal CLint at 150 µM [35]: 15 µL/min/mg | Activity (AGS [36]): 9.08% | Ratio [37]: 4.5 | inhibition in vivo at 20 mg/kg (ASPC1 [38]): 71.3% | AUC at 24 h [39]: 102 ng·h/mL | IC50 [40]: 1.19 nM | Activity (AGS [41]): 11% | IC50 (NCI-H1299): 1850 nM | Activity [42]: Non-Toxic

[2H]C([2H])(Oc1nc(N2C[C@H]3CC[C@@H](C2)N3)c2cnc(-c3cc(O)cc4ccc(F)c(C#C)c34)c(F)c2n1)C12CCCN1CC(=C(F)F)C2 (stereo partly drawn)
Activity [2]: 13.5 mmol/L | Activity (AGS [3]): 11.4% | Activity (ASPC1 [4]): 18.7% | Activity [5]: Non-Toxic | inhibition in vivo at 10 mg/kg (ASPC1 [6]): 55.3% | Activity (ASPC1 [7]): 10% | microsomal CLint at 150 µM [8]: 57 µL/min/mg | Activity [9]: Non-Toxic | Activity [10]: Non-Toxic | Ratio [11]: 5 | IC50 (A549): 332 nM | half-life [12]: 18.4 min | clearance [13]: 490 mL/min/kg | Activity [14]: 25.9 µmol/L | IC50 (AGS [15]): 0.3 nM | half-life at 150 µM [16]: 83.5 min | microsomal CLint at 150 µM [17]: 51.8 µL/min/mg | Activity [18]: Non-Toxic | Activity [19]: Non-Toxic | Activity [20]: Non-Toxic | Activity (ASPC1 [21]): 11.5% | Activity [22]: 14.1 mmol/L | Activity [23]: 22.2 µmol/L | Activity [24]: Non-Toxic | half-life at 150 µM [25]: 24.3 min | Activity [26]: Non-Toxic | Activity [27]: Non-Toxic | IC50 (ASPC1 [28]): 0.6 nM | IC50 (GTPase KRas): 10.2 nM | Activity [29]: Non-Toxic | half-life at 150 µM [30]: 26.8 min | Activity (ASPC1 [31]): 9.17% | Activity (AGS [32]): 14% | Activity [34]: Non-Toxic | microsomal CLint at 150 µM [35]: 16.6 µL/min/mg | Activity (AGS [36]): 13.1% | Ratio [37]: 5.7 | inhibition in vivo at 20 mg/kg (ASPC1 [38]): 73.4% | AUC at 24 h [39]: 37.2 ng·h/mL | IC50 [40]: 0.48 nM | Activity (AGS [41]): 9.76% | IC50 (NCI-H1299): 1940 nM | Activity [42]: Non-Toxic
